US20220324770A1, “NITRIFICATION INHIBITORS” (The University of Melbourne, priority 2019, published 2022)

How the values were obtained:
South Johnstone soil [1] = assay: Soil thin-layer chromatography (TLC) leaching study, South Johnstone soil; type: physicochemical
Protocol: (§1) TLC plates were prepared based on methods described in the literature (Helling, C. S., Turner, B. C, Science 1968, 162, 562-563; Mohammad, A., Jabeen, N., JPC—Journal of Planar Chromatography—Modern TLC 2003, 16, 137-143). Masking tape (3 layers, ˜[…] total thickness) was used to outline three columns (4 cm W×12 cm H) on a glass TLC plate (20×20 cm). A slurry of freshly ground soil in distilled H2O (˜2:3 m/v) was then poured onto the prepared plate and spread evenly using a glass rod. Once even, the plate was dried overnight in an oven at 35° C. Careful removal of the masking tape afforded the TLC plate ready for sample application.
(§2) Samples of DMP (the active core of DMPP) or Compound 16 (˜1 mg) dissolved in acetone (100 μL) were pipetted in a straight line across the soil, 2 cm above the base of the plate. Application band thickness was kept under 0.5 cm. After 30 mins of drying time, the TLC plate was developed inside a glass developing chamber with distilled H2O (depth of 0.5 cm) until the solvent front reached the top of the soil (˜1 hr). […] The plate was then allowed to air dry overnight.
(§3) Once dry, the plate was divided into six horizontal bands corresponding to Rf values of: (1) <0.05 (baseline), (2) 0.05 to 0.25, (3) 0.25 to 0.45, (4) 0.45 to 0.65, (5) 0.65 to 0.85, and (6) 0.85 to 1. In sequence, soil in each band was carefully scraped off the glass backing and collected in vials. Special care was taken to avoid cross-contamination between soil of different bands, and the separate channels.
(§4) Individual soil bands collected from the TLC plate were extracted as follows: • 1. Addition of an aqueous solution of CaCl2/MgSO4 (0.01M and 0.45M respectively, 2 mL). • 2. Sonication for 5 minutes then manual shaking for 30 seconds. • 3. Addition of methyl-tert-butyl ether (MTBE, 2 mL) then manual shaking for 30 seconds. • 4. Sonication for 10 minutes then manual shaking for 30 seconds. • 5. Rested until soil began to settle, then frozen overnight at −20° C. • 6. After partial defrosting, the ethereal extract was filtered through nylon syringe filters (FilterBio®, 13 mm diameter, 0.45 µm pore size).
(§5) The filtered ethereal extracts (450 μL) were spiked with 50 μL of a standard solution of either cyclododecanone in MTBE (1.97 mg/mL, for DMP-treated samples) or cyclooctanone in MTBE (6.37 mg/mL, for 16-treated samples). Samples were then directly analysed by GC-MS (method: 70° C. for 5 mins, then ramp 10° C./min to 250° C., hold at 250° C. for 17 mins [total run time=40 minutes]) to analyse the presence or absence of the inhibitor in each soil band.
(§6) GC-MS peak areas calculated for the standards cyclooctanone (Rt=9.1 mins) and cyclododecanone (Rt=15.8 mins) were compared to those calculated for Compound 16 (Rt=13.9 mins) and DMP (Rt=7.6 mins) respectively, for each soil sample extract where inhibitor was detected as follows:
(§7) As each treatment was run in triplicate, mean values are reported for detected inhibitor percentages for each Rf band, with errors presented as the standard deviation.
(§8) Samples of the DCD (˜1 mg) dissolved in methanol (300 μL) were pipetted in a straight line across the soil, 2 cm above the base of the plate. Application band thickness was kept under 0.5 cm. After 30 mins of drying time, the TLC plate was developed inside a glass developing chamber in distilled H2O (depth of 0.5 cm) until the solvent front reached the top of the soil (˜1 hr). […] The plate was then allowed to air dry overnight.
(§9) Individual soil bands collected from the TLC plate were extracted as follows: • 1. Addition of methanol (2 mL). • 2. Manual shaking for 30 seconds following sonication for 15 minutes. • 3. Once soil began to settle, the methanolic extract was filtered through nylon syringe filters (FilterBio®, 13 mm diameter, 0.45 µm pore size). • 4. 300 μL of the methanolic extracts were evaporated under nitrogen flow, and then the residues was taken up in ultrapure acetonitrile (1 mL). • 5. […]

Dahlen soil = assay: Soil thin-layer chromatography (TLC) leaching study, Dahlen soil; type: physicochemical; conditions: Dahlen soil TLC
Protocol: as §1, §2, §3, §4, §5, §6, §7, §8, §9

Terang soil = assay: Soil microcosm incubation (nitrification of applied ammonium), Terang soil
Protocol: (§10) The soil used in this study was collected from four different locations in Victoria, Australia: (i) a wheat cropping soil from Horsham (36° 45′S, 142° 07′ E), (ii) a rotational cropping soil from Dahlen (36° 37′S, 142° 09′ E), (iii) a vegetable growing soil from Clyde (38° 08′S, 145° 20′ E), and (iv) a pasture soil from Terang (38° 15′S, 142° 52′E). In addition, a sugarcane cropping soil from South Johnstone in northern Queensland (17° 34′S, 145° 57′ E) was also studied. The water content of the soil was calculated before commencing each experiment, from samples that were oven-dried to constant weight. The soil's water-filled pore space (WFPS) was in the range 52%-61%, which is within the recommended 50-70% range for microbial activity due to oxygen and nutrient availability (Fichtner, T., et al., Applied Sciences, 2019, 9, 496).
(§11) Soil microcosm incubations were carried out in 250 ml polypropylene specimen containers (Sarstedt, Germany), containing 18.24 g oven dry-weight equivalent of soil. Microcosms were re-wetted and pre-incubated at the test temperature for seven days to revive soil microbial activity. Following pre-incubation, the remaining volume to reach the desired water-filled pore spaces (WFPS %) was applied as one of the following treatment solutions; (NH4)2SO4(Control), (NH4)2SO4+DMPP, or (NH4)2SO4+one of Compounds 1-23. Each treatment was applied in triplicate per soil type, so that n=3 at each time point.
(§12) Treatment solutions were prepared such that each microcosm received (NH4)2SO4 at a rate of 100 mg N per kg soil, Compounds 1-23 at 10 mol % of applied N, or DMPP at one of 1.5, 3.6 or 10 mol % of applied N, referred to as L-DMPP, M-DMPP or H-DMPP respectively.
(§13) The microcosms were incubated for 0, 3, 7, 14, 21 or 28 days, where day 0 samples were extracted following 1-hour incubation post-treatment. Soil microcosms were aerated and moisture levels were replenished based on weight loss every few days throughout the incubation period.
(§14) At the end of each incubation period, soil microcosms were destructively sampled by treatment with 2M KCl (100 mL). After shaking for 1 hour, soil-KCl solutions were filtered (Whatman 42) before storing the filtrates at −20° C. until the conclusion of the experiment. All KCl extracts were then analysed by Segmented Flow Analysis (San++, Skalar, Breda, The Netherlands) for the concentration of nitrogen from ammonium (NH4^+—N) and nitrogen from NO3 and NO2 (NOx^−—N) after appropriate dilutions. Results are reported as the mean of three replicates, errors reported are standard errors of the mean.
(§15) Nitrification calculations were performed as previously reported (Aulakh, M., et al., Biology and Fertility of Soils 2001, 33, 258-263; Mahmood, T., et al., Soil Research 2017, 55, 715-722) without correction for the initial baseline concentrations of NH4^+—N or NO3^− N in the untreated soil. For each treatment nitrified NH4^+—N (%) was calculated according to eqn. 1:
(§16) where [NH4^+—N]0 is the NH4^+—N concentration (in mg N kg^−1 soil) of the soil on day 0 and [NH4^+—N]t is the NH4^+—N concentration (in mg N kg^−1 soil) of the soil at a given time point t.

South Johnstone soil [2] = assay: Soil microcosm incubation (nitrification of applied ammonium), South Johnstone soil; conditions: for Nitrified NH4+—N (%) Day 3 / Nitrified NH4+—N (%) Day 7 / Nitrified NH4+—N (%) Day 14 / Nitrified NH4+—N (%) Day 21 / Nitrified NH4+—N (%) Day 28: 10 mol %
Protocol: as §10, §11, §12, §13, §14, §15, §16

[3] = South Johnstone soil pH 5.0, 25° C.
[4] = South Johnstone soil pH 5.0, 35° C.

Cc1c[nH]nc1C [DMP, 3,4-dimethylpyrazole, reference compound]
Detected Inhibitor (%) (South Johnstone soil [1]; South Johnstone soil TLC, Rf 0.25-0.45): 2 ± 2%
Detected Inhibitor (%) (South Johnstone soil [1]; South Johnstone soil TLC, Rf 0.45-0.65): 56 ± 12%
Detected Inhibitor (%) (South Johnstone soil [1]; South Johnstone soil TLC, Rf 0.65-0.85): 42 ± 13%
leaching in soil TLC (South Johnstone soil [1]; acidic South Johnstone soil): leach in a narrower band and to a lesser extent than Compound 16
Rf range in which the majority of the inhibitor was detected (Dahlen soil): 0.65-0.85
Detected Inhibitor (%) (Dahlen soil; Rf 0.45-0.65): 0.1 ± 0.2%
Detected Inhibitor (%) (Dahlen soil; Rf 0.65-0.85): 72 ± 16%
Detected Inhibitor (%) (Dahlen soil; Rf 0.85-1): 28 ± 16%

N#CN=C(N)N [DCD, dicyandiamide, reference compound]
Rf range of largest DCD accumulation (South Johnstone soil [1]; South Johnstone soil TLC, HPLC detection, preliminary results): 0.65-1
Rf range of largest DCD accumulation (Dahlen soil; HPLC detection, preliminary results): 0.65-1

CCCCc1cn(CC(=O)OCC)nn1 [Compound 3, 4-Butyl-1H-1,2,3-Triazole-1-Acetic Acid Ethyl Ester]
Nitrified NH4+—N (%) Day 3 (Terang soil; Terang soil pH 6.5, 25° C., day 3, compounds 10 mol % of applied N, L-DMPP 1.5 mol %, (NH4)2SO4 100 mg N per kg soil): 15.6 ± 3.0%
Nitrified NH4+—N (%) Day 7 (Terang soil; Terang soil pH 6.5, 25° C., day 7, compounds 10 mol %, L-DMPP 1.5 mol %): 29.4 ± 2.6%
Nitrified NH4+—N (%) Day 14 (Terang soil; Terang soil pH 6.5, 25° C., day 14, compounds 10 mol %, L-DMPP 1.5 mol %): 47.8 ± 3.5%
Nitrified NH4+—N (%) Day 28 (Terang soil; Terang soil pH 6.5, 25° C., day 28, compounds 10 mol %, L-DMPP 1.5 mol %): 99.9 ± 2.8%
retaining NH4+—N in the soil compared with the fertilised control (Terang soil; Terang soil, 25° C.): most effective treatments
Nitrified NH4+—N (%) Day 3 (South Johnstone soil [2]; South Johnstone soil pH 5.0, 25° C., negative = NH4+—N higher than day 0 (mineralisation)): −6.3 ± 0.7%
Nitrified NH4+—N (%) Day 7 (South Johnstone soil [2]; [3]): −7.9 ± 0.9%
Nitrified NH4+—N (%) Day 14 (South Johnstone soil [2]; [3]): −12.7 ± 0.7%
Nitrified NH4+—N (%) Day 21 (South Johnstone soil [2]; [3]): −13.9 ± 0.9%
Nitrified NH4+—N (%) Day 28 (South Johnstone soil [2]; South Johnstone soil pH 5.0, 25° C., day 28): −12.8 ± 0.8%
Nitrified NH4+—N (%) Day 3 (South Johnstone soil [2]; [4]): −11.8 ± 1.5%
Nitrified NH4+—N (%) Day 7 (South Johnstone soil [2]; [4]): −26.2 ± 1.5%
Nitrified NH4+—N (%) Day 14 (South Johnstone soil [2]; [4]): −34.8 ± 0.6%
Nitrified NH4+—N (%) Day 21 (South Johnstone soil [2]; [4]): −28.3 ± 1.4%
Nitrified NH4+—N (%) Day 28 (South Johnstone soil [2]; South Johnstone soil pH 5.0, 35° C., day 28): −18.6 ± 2.3%
effectiveness compared to treatment with DMPP (higher NH4+—N, lower NOx−—N) (South Johnstone soil [2]; South Johnstone soil, 25° C., day 28): statistically higher effectiveness
retaining NH4+—N vs DMPP (South Johnstone soil [2]; South Johnstone soil, 35° C.): performed statistically better than DMPP
retaining NH4+—N and slowing NOx−—N growth vs fertilised control (South Johnstone soil [2]; South Johnstone soil, 35° C., day 28): performed statistically better than the fertilised control
